Laboratory results as given in patent US20100297123A1, “COMBINATION THERAPY TO INHIBIT T CELL EFFECTOR FUNCTION” (priority 2009, published 2010).

Experiments:
[1] = system: effector CD4 T cells; assay: CFSE proliferation assay of mouse effector CD4 T cells; type: cell-based; settings: effector CD4 T cells stimulated with anti-CD3/28 and drug(s), FIG. 12B
Experimental: Proliferation and cell division assays. Cells cultured in 96-well U-bottom plate wells were pulsed with 1 μCi of methyl-[^3H]thymidine (Amersham Biosciences) for 6 h during the last 72 h of stimulation and harvested onto filters (Wallac). Filters were wetted with Betaplate Scintillation fluid (PerkinElmer) and counts per minute read on a 1205 Betaplate Liquid Scintillation Counter (Wallac). For CFSE experiments, cells were labeled with 1 μM CFDA-SE (Sigma-Aldrich) in serum free RPMI 1640 medium for 10 min and washed twice before culturing. CFSE-labeled cells were assayed after 72 h of culture.
GRAIL is expressed during quiescence, lost upon activation. Naïve CD4 T cells were isolated from mouse and stimulated with anti-CD3 and anti-CD28 antibodies in vitro for the indicated number of hours (FIG. 10). Protein was collected and run by Western blot probing for GRAIL and β-actin. Effector CD4 T cells were made by first isolating from naïve mice, then stimulating with anti-CD3/28 for 3 days, split off and rested for 2 more days, then washed and put in fresh media for 2 additional days. Live CD4 T cells were then collected, shown to be at rest, and then activated in the same manner as described above. Protein samples were isolated and probed with anti-GRAII antibody as described in Example 1.
Shown in FIG. 12A, naïve CD4 T cells were labeled with CFSE, a dye that dilutes out with successive cell divisions. The naïve CD4 T cells were stimulated with anti-CD3/28 and the indicated drug(s) and CFSE profiles assessed after 3 days. […] A similar experiment was performed with effector CD4 T cells, prepared as described above.

[2] = system: mouse naive CD4 T cells; assay: CFSE cell division assay of mouse naive CD4 T cells; type: cell-based; settings: anti-CD3/28 stimulation, CFSE profiles after 3 days
[3] = system: GRAIL; assay: GRAIL western blot of effector CD4 T cells; type: cell-based, mouse; settings: effector CD4 T cells stimulated with anti-CD3/28, western blot, FIG. 12C
Experimental: Immunoblots. Whole-cell lysates were made using lysis buffer consisting of 0.5% Nonidet P-40, 100 mM sodium chloride, 0.5 mM EDTA, 20 mM Tris (pH 7.6-8.0), with protease inhibitor mixture (Pierce) and phosphatase inhibitor mixture (Pierce). Protein samples were loaded on 4-15% Tris-HCl gels (Bio-Rad) and separated by SDS-PAGE. Protein was transferred from gel to Immobolin-P polyvinylidene difluoride membrane (Millipore) using Trans-Blot SD Semidry Transfer Apparatus (Bio-Rad) following the manufacturer's instructions. StartingBlock (Tris-buffered saline with 0.05% Tween 20) (Pierce) was used to block membranes and was also used during primary and secondary Ab staining. Secondary Abs were all HRP conjugated (Zymed Laboratories). ECL Plus Western Blotting Reagents (GE Healthcare) were used for chemiluminescent detection of protein. Chemiluminescence signal was exposed onto Amersham Hyperfilm ECL (GE Healthcare). Membranes were stripped using Restore Western Blot Stripping Buffer (Pierce). Densitometry was performed using ImageJ software (National Institutes of Health). […]

For `O=C(NOCC(O)CO)c1ccc(F)c(F)c1Nc1ccc(I)cc1F` (centres unmarked) [PD0325901, N-(2,3-dihydroxypropoxy)-3,4-difluoro-2-(2-fluoro-4-iodophenylamino)benzamide], the “proliferation of effector CD4 T cells (CFSE)” value (“proliferation … (CFSE)” below) [1] was “does not work alone”.

In the case of `CC(=O)O[C@@H]1[C@@H](OC(C)=O)[C@@H](O)[C@H](Oc2c(-c3ccc(O)cc3)oc3cc(O)cc(O)c3c2=O)O[C@H]1C` [SL0101], the “proliferation … (CFSE)” value [1] is reported as “does not work alone”.

With `N#CC(=C(/N)Sc1ccccc1N)/C(C#N)=C(\N)Sc1ccccc1N` [U0126] the “proliferation … (CFSE)” value [1] was “does not inhibit proliferation”, the “cell division / proliferation by CFSE dilution” value [2] was “inhibits proliferation” and the “GRAIL retention in effector CD4 T cells” value [3] was “does not lead to GRAIL retention”.
